Structures are written as SMILES.

What all share (type): cell-based
Assay [1] has as its target T1, mouse TGR5 receptor (Mus musculus, UniProt Q80SS6).
T1 construct: host or cells: HEK293-EBNA (293 c18, ATCC CRL10852)
T1 sequence (Q80SS6 1-329): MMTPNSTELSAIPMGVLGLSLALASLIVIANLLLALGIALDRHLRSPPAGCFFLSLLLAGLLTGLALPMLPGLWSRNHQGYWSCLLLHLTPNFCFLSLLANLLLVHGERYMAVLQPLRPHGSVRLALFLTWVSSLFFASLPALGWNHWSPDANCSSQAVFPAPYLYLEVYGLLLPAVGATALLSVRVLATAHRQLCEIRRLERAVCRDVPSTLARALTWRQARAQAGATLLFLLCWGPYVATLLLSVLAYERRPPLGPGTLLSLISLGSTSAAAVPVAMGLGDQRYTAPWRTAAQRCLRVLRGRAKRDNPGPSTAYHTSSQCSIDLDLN
The experiment in a line: Mouse TGR5 luminescent cAMP production assay (HEK293-EBNA cells, DiscoveRx cAMP XS+ kit). The note with it: HEK293-EBNA cells overexpressing mouse TGR5, luminescent cAMP assay; read-out: Mouse TGR5 Lum. cAMP Activity (EC50). The method, then:
Mouse TGR5 cAMP Production Assay
Compounds of the present invention were evaluated for their ability to induce cAMP production in HEK-EBNA cells overexpressing the mouse TGR5 receptor. Human embryonic kidney cells (HEK293-EBNA) stably expressing mouse TGR5 receptor were established using the following procedure. Specifically, a commercially obtained gene encoding mouse TGR5 (accession number BC116914) from Thermo Scientific (Waltham, Mass.) was cloned into an episomal expression vector. The resulting expression plasmid was then transfected into 293 c18 (ATCC® CRL10852™) cells, which express the Epstein-Barr virus nuclear antigen EBNA1 and can support the replication of episomal vectors. Selection for the plasmid was maintained with Hygromycin B. Cells were cultured and maintained in DMEM (Sigma; cat #6429) supplemented with 10% Fetal Bovine Serum, 1% penicillin/streptomycin, 2 mM L-alanine L-glutamine (GlutaMax), and 250 μg/mL Hygromycin.
We developed two cAMP production assays.
(i) Luminescent cAMP Production Assay
In this first cAMP production assay, the cAMP production was measured using DiscoveRx's cAMP XS+ kit following the manufacturer's recommended protocol. Briefly, HEK293-EBNA cells stably overexpressing mouse TGR5 were harvested using non-enzymatic cell dissociation buffer (Sigma-Aldrich, St. Louis, Mo.), spun down, then resuspended in serum-free DMEM with 500 μM IBMX at a density of 1.25×10^6 cells/mL. 500 μL of cAMP antibody solution was added to 500 μL of cell suspension and incubated at room temperature for 20 min.
Test compounds were serially diluted (half-log dilutions) in DMSO and then further diluted 1:50 in PBS, 10 mM HEPES buffer. 2 μL of serially diluted compound was added to a 384-well low volume plate (Greiner cat #784075) and centrifuged briefly. 2 μl of the cell/cAMP antibody mixture was then added to each compound-containing well and allowed to incubate at room temperature for one (1) hour. Following incubation, the XS+ kits' ED/Lysis/CL Substrate Working Solution was prepared following the manufacturer's recommended protocol and 4 μL was added to each well of the plate. The plate was then incubated for one (1) hour at room temperature. Following incubation, 4 μL of (Enzyme Acceptor) EA reagent was added to the plate and allowed to incubate overnight at room temperature. Luminescent signal was then detected using the Viewlux instrument (PerkinElmer, Waltham, Mass.).
In Table 52, EC50 values for both human and mouse cells were determined according to the TGR5 cAMP assays described above. […]

A further assay deals with T2, human TGR5 receptor (Homo sapiens, UniProt Q8TDU6).
T2 construct: host or cells: CHO-K1 (hTGR5-CHO)
T2 sequence (Q8TDU6 1-330): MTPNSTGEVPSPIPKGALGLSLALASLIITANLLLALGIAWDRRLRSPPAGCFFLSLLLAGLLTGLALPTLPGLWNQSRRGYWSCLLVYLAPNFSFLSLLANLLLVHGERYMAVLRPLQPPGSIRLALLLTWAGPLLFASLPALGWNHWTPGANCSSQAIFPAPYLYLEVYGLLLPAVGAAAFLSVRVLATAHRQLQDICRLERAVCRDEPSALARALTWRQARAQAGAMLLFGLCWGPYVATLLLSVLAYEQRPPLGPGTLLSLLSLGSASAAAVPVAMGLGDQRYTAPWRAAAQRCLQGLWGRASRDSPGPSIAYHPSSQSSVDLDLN
The experiment in a line: Human TGR5 cAMP production assay (hTGR5-CHO cells, DiscoveRx cAMP XS+ kit). The note with it: luminescent cAMP assay, read-out: Human TGR5 Lum. cAMP Activity (EC50). The gist of the method:
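CHO-K1 cells stably expressing hTGR5, in PBS with IBMX and cAMP antibody, treated with half-log compound dilutions for 1 h at room temperature. cAMP measured by enzyme-fragment complementation luminescence after overnight detection; EC50 values reported.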
(In general: Changes in cAMP serve as a functional read-out for many G protein-coupled receptors.)

Another assay deals with Mouse STC-1 cells. Description: STC-1 GLP-1 assay (GLP-1 secretion). The note with it: Mouse STC-1 cells, GLP-1 secretion, 2 h; read-out: Mouse STC-1 HTRF GLP-1 Activity (EC50). The method, then: Compounds of the present invention were evaluated for their ability to induce GLP-1 production in mouse intestinal neuroendocrine tumor cells.
Mouse STC-1 cells were cultured and maintained in high glucose DMEM (Sigma #5796) supplemented with 15% horse serum, 5% Fetal Bovine Serum (FBS), 1%° penicillin/streptomycin, and 2 mM L-alanine L-glutamine (GlutaMax). Two days prior to analysis of GLP-1 secretion cells were harvested using Accutase (Sigma), spun down then resuspended in high glucose DMEM media containing 2 mM L-alanine L-glutamine (GlutaMax), 10% charcoal-dextran stripped FBS, and 50 μg/mL Gentamicin, at a density of 100,000° cells/mL. 100 μL of cell suspension was added to each well of a 96-well Poly-D-Lysine coated culture plate (Sigma; cat #2382493) and was incubated at 37° C. with 5% CO2.
Compounds were initially diluted in 100% DMSO (12-point serial dilution by half logs) in a 96-well plate and then were further diluted 1:500 in Hanks' Balanced Salt Solution (HBSS) containing protease inhibitor cocktail, DPP-IV inhibitor, and 0.1% fatty acid free bovine serum albumin. On the day of the experiment cells were washed once with HBSS. After wash, 100 μL of test compound was added to each well. The plate was incubated at 37° C. with 5% CO2 for 2° h. Supernatants were collected and GLP-1 secretion was measured using the Cisbio™ Active GLP-1 HTRF Assay Kit (CisBio). Briefly, Anti-GLP-1-d2 conjugate and Anti-GLP-1 Terbium Cryptate conjugate stock solutions were prepared as per kit instructions. The two solutions were pre-mixed and 10 μL were transferred to a 384-well low volume plate (Greiner; cat #784075). 10 μL of collected supernatants were added to wells already containing the conjugate solution. The plate was covered and incubated at room temperature overnight. The plate was read on an Envision™ plate reader (PerkinElmer).
In Table 53, EC50 values were obtained from the STC-1 GLP-1 production assay for compounds of the present invention are summarized.
For orientation: TR-FRET usually uses a lanthanide donor and a delayed reading to cut background.

The target in assay [2] is T1, mouse TGR5 receptor. Description: Mouse TGR5 HTRF cAMP production assay (HEK293-EBNA cells, Cisbio cAMP HiRange kit). The note with it: HEK293-EBNA cells overexpressing mouse TGR5, HTRF cAMP assay. The gist of the method: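 HEK293-EBNA cells stably expressing mouse TGR5 (episomal vector) were suspended in serum-free DMEM with 500 μM IBMX and exposed to 12-point half-log compound dilutions for 1 h at room temperature. cAMP was detected by HTRF (d2-cAMP/anti-cAMP cryptate, 1 h, room temperature), giving EC50 from duplicates.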

Broadly, the EC50 is the concentration needed to bring the measured effect to its halfway point. As to `N#Cc1ccc(CCNC(=O)[C@@H]2C[C@@H](O)CN2c2cc(N3CCC(CO)CC3)nc(C(F)(F)F)n2)cc1` [Compound 211, (2S,4R)-N-(4-cyanophenethyl)-4-hydroxy-1-(6-(4-(hydroxymethyl)piperidin-1-yl)-2-(trifluoromethyl)pyrimidin-4-yl)pyrrolidine-2-carboxamide], the EC50 at mouse TGR5 receptor [1] and on human TGR5 receptor was 100 to 999 nM in each case.
With `N[C@@H]1CC(C(=O)NCCc2ccc(C(F)(F)F)cc2)N(c2cc(N3CCC(CO)CC3)nc(C(F)(F)F)n2)C1` (stereo partly drawn) [Compound 218, (4R)-4-amino-1-(6-(4-(hydroxymethyl)piperidin-1-yl)-2-(trifluoromethyl)pyrimidin-4-yl)-N-(4-(trifluoromethyl)phenethyl)pyrrolidine-2-carboxamide], the EC50 at mouse TGR5 receptor [1] was 100 to 999 nM; at human TGR5 receptor, 1000 to 30000 nM.
With `N#Cc1ccc(CCNC(=O)[C@@H]2CCCN2c2cc(-c3ccco3)nc(C(F)(F)F)n2)cc1` [Compound 167, (S)-N-(4-cyanophenethyl)-1-(6-(furan-2-yl)-2-(trifluoromethyl)pyrimidin-4-yl)pyrrolidine-2-carboxamide], the EC50 was 100 to 999 nM at mouse TGR5 receptor [1] and 1000 to 30000 nM on human TGR5 receptor.
As to `N#Cc1ccc(CCNC(=O)C2CCN2c2cc(N3CCC(CO)CC3)nc(C(F)(F)F)n2)cc1` (stereo not shown) [Compound 241, N-(4-cyanophenethyl)-1-(6-(4-(hydroxymethyl)piperidin-1-yl)-2-(trifluoromethyl)pyrimidin-4-yl)azetidine-2-carboxamide], the EC50 on mouse TGR5 receptor [1] and on human TGR5 receptor was less than 100 nM throughout.
For `CN(C)CCN1CCN(c2cc(N3CCC[C@@H](C(=O)NCCc4ccc(C#N)cc4)C3)nc(C(F)(F)F)n2)CC1` [Compound 317, (R)-N-(4-cyanophenethyl)-1-(6-(4-(2-(dimethylamino)ethyl)piperazin-1-yl)-2-(trifluoromethyl)pyrimidin-4-yl)piperidine-3-carboxamide], the EC50 on mouse TGR5 receptor [1] and at human TGR5 receptor was 100 to 999 nM in each case.
Turning to `CC(C)(C)OC(=O)N1CCC(Oc2cc(N3CC[C@H]3C(=O)NCCc3ccc(C#N)cc3)nc(C(F)(F)F)n2)CC1` [Compound 243, (S)-tert-butyl 4-((6-(2-((4-cyanophenethyl)carbamoyl)azetidin-1-yl)-2-(trifluoromethyl)pyrimidin-4-yl)oxy)piperidine-1-carboxylate], the EC50 at mouse TGR5 receptor [1] and at human TGR5 receptor was 100 to 999 nM each time.
`CC(=O)NCCNc1cc(N2CCC[C@@H](C(=O)NCCc3ccc(C(F)(F)F)cc3)C2)nc(C(F)(F)F)n1` [Compound 324, (R)-1-(6-((2-acetamidoethyl)amino)-2-(trifluoromethyl)pyrimidin-4-yl)-N-(4-(trifluoromethyl)phenethyl)piperidine-3-carboxamide]: the results for the EC50 on mouse TGR5 receptor [1] and on human TGR5 receptor were 100 to 999 nM and 1000 to 30000 nM, respectively.
With `COc1ccc(Oc2cc(N3CCC[C@H]3C(=O)NCCc3ccc(C#N)cc3)nc(C(F)(F)F)n2)cc1` [Compound 44, (S)-N-(4-cyanophenethyl)-1-(6-(4-methoxyphenoxy)-2-(trifluoromethyl)pyrimidin-4-yl)pyrrolidine-2-carboxamide], the EC50 at mouse TGR5 receptor [1] lay within 100 to 999 nM; on human TGR5 receptor it was 1000 to 30000 nM.
On to `N#Cc1ccc(CCNC(=O)[C@@H]2CCCN2c2cc(N3CCC(CCNS(=O)(=O)CCNC(=O)NCCC(=O)O)CC3)nc(C(F)(F)F)n2)cc1` [Compound 371, (S)-3-(3-(3-((2-(1-(6-(2-((4-cyanophenethyl)carbamoyl)pyrrolidin-1-yl)-2-(trifluoromethyl)pyrimidin-4-yl)piperidin-4-yl)ethyl)amino)-2-sulfonyl)ethylureido)propanoic acid], for which the values for the EC50 at human TGR5 receptor, in the assay with Mouse STC-1 cells and at mouse TGR5 receptor [2] were less than 100 nM, 100 to 999 nM and less than 100 nM, respectively.
On to `N#Cc1ccc(CCNC(=O)[C@@H]2CCN2c2cc(N3CCC(CCC(=O)O)CC3)nc(C(F)(F)F)n2)cc1` [Compound 227, (S)-3-(1-(6-(2-((4-cyanophenethyl)carbamoyl)azetidin-1-yl)-2-(trifluoromethyl)pyrimidin-4-yl)piperidin-4-yl)propanoic acid], for which the EC50 on human TGR5 receptor was less than 100 nM; in the assay on Mouse STC-1 cells, 100 to 999 nM; on mouse TGR5 receptor [2], less than 100 nM.
As for `N[C@@H](CO)C(=O)N1CCN(c2cc(N3CCC[C@@H](C(=O)NCCc4ccc(C(F)(F)F)cc4)C3)nc(C(F)(F)F)n2)CC1` [Compound 342, (R)-1-(6-(4-((S)-2-amino-3-hydroxypropanoyl)piperazin-1-yl)-2-(trifluoromethyl)pyrimidin-4-yl)-N-(4-(trifluoromethyl)phenethyl)piperidine-3-carboxamide], the EC50 at human TGR5 receptor was 100 to 999 nM; with Mouse STC-1 cells it was 100 to 999 nM; on mouse TGR5 receptor [2], less than 100 nM.
Turning to `COCCN1CCN(c2cc(N3CCC[C@@H](C(=O)NCCc4ccc(C(F)(F)F)cc4)C3)nc(C(F)(F)F)n2)CC1` [Compound 328, (R)-1-(6-(4-(2-methoxyethyl)piperazin-1-yl)-2-(trifluoromethyl)pyrimidin-4-yl)-N-(4-(trifluoromethyl)phenethyl)piperidine-3-carboxamide], the concentration for a half-maximal effect (EC50) at human TGR5 receptor was less than 100 nM; in the assay with Mouse STC-1 cells it was 100 to 999 nM; at mouse TGR5 receptor [2] it was less than 100 nM.

(Values after patent publication US10654834B2 (Venenum Biodesign, LLC, priority 2016, dated 2020).)
